The values below come from patent publication US12012415B2, “Compositions and methods for the diagnosis, treatment and prevention of neoplastic and neurological disorders” (AscentGene, Inc., priority 2018, dated 2024).

One assay has as its system U251 cells. Nature of the assay: Cell viability, combination with TMZ in U251 cells. It is filed as cell-based, human. Here is the method:
(§1) Human glioma cell lines of U251, SF539, SF295 were obtained from NCI/DTP and U87 was obtained from ATCC. U251, SF539, and SF295 cells were grown in RPMI (Gibco) medium; U87 cells were grown in EMEM medium (ATCC), all the cells culture media containing 10% FBS and 100 unit/ml of Penicillin-Streptomycin, and cells were incubated in a 37 °C/5% CO2 humidified hood. One day before chemical compounds treatment, four kinds of cells U251, SF539, SF295, and U87 were seeded in 96-well plates at 10,000 cells/well (100 μl) with triplicate. The culture medium was removed and cells were treated with a series different concentration of AG1601/in correspond fresh media. Following an additional incubation of 48 hours at 37° C./5% CO2, cells proliferation assay was performed with Cell Counting Kit-8 (Dojindo Laboratories, #CK04), added 10 μl of reagent to the cells in each well after replacing with 100 μl of fresh media, mix well, following an additional 2 to 3 hours incubation at 37° C./5% CO2, read wavelengths of OD450 nm in a 96-well plate reader (Victor 2, 1420 Multilabel counter), data analysis were performed with Excel and it is platted as relative mean OD450 nm+/−standard error of the mean.
(§2) Cells were treated with indicated content of AG-1601 for 48 hours, then followed by performance of cell viability assays. […]

Assay [1] relates to NR2A, NR2B, PSD-95 and SYP. Briefly: Western blot of synaptic proteins in hippocampal fractions, Aβ1-42 AD rat model. It is filed as in vivo, rats. The procedure:
Aβ1-42 (Sigma-Aldrich, St. Louis, MO, USA;) was dissolved in double-distilled water at the concentration of 5 μg/μl, and incubated at 37° C. for one week before surgery. The rats were randomly divided into four groups as Sham (n=8), Sham+AG-1601 (n=8), Aβ1-42 (n=8) and Aβ1-42+AG-1601 (n=8). The Alzheimer's disease rat models were established by intracerebroventricular (i.c.v.) injection of Aβ1-42 aggregates. The animals were anesthetized with intraperitoneal injection of pentobarbital sodium (50 mg/kg) and placed in a stereotaxic apparatus (Narishige, Japan). The head skin of the rat was opened and two small holes were drilled on both sides of skull following the coordinates: 0.8 mm posterior to bregma, +1.4 mm lateral to sagittal suture, 4.0 mm beneath the surface of brain. Aβ1-42 (2.0 μl per side) was injected bilaterally into the lateral ventricles through micro-syringe. The needle was taken out after 5 minutes of the injection to ensure the aggregates were infused completely. Rats in the Sham group underwent the same operational process, but same volumes of double-distilled water were injected instead of Aβ1-42. After surgery, all rats were injected with penicillin (100,000 U) in the hindquarter muscle to prevent infection. The animals of Sham+AG-1601 and Aβ1-42+AG-1601 groups were intravenous injection with AG-1601 (1 mg/kg), while the same volume vehicle was implemented for the other groups every day for 14 days after one week of the postoperative recovery.
Three rats of each group were randomly selected to be sacrificed and their hippocampal tissues were immediately removed at 0° C. and stored at minus 80° C. For subcellular fractionation, 100- to 200-mg weight rat hippocampal tissue was used. The procedure has been described (Yang et al., 2017). The tissues were homogenized for 30 s in 500 μl TEVP buffer containing 320 mM sucrose and the homogenate was obtained. The homogenate (H) was centrifuged at 900×g for 10 min at 4° C., and the supernatant (S1) was centrifuged for 20 min at 10000×g at 4° C. to obtain the cytosolic/light membrane fraction (S2) and the crude synaptosomal fraction pellet (P2). The pellet was resuspended in TEVP buffer containing 35.6 mM sucrose solution and then centrifuged at 25,000×g for 20 min at 4° C. The supernatant was stored at minus 80° C. and referred as the synaptic vesicular fraction (LS1). The pellet, synaptic plasma membranes (LP1), was resuspended in TEVP buffer containing 1% Triton X-100 and centrifuged at 330,000×g for 30 min at 4° C. The supernatant referred as Triton X-100-soluble fraction (TSF) was stored at minus 80° C. The final pellet, the Triton X-100-insoluble fraction (TIF), was homogenized in TEVP buffer containing 1% SDS.
The concentration of every component was measured by the BCA protein assay kit (Beyotime Biotechnology, China). The components were finally boiled with 4× loading buffer at 100° C. for 15 min and stored at minus 80° C. for Western blot assay.
The total homogenate (H) and synaptosomal fractions were analyzed. Equal amounts of 20 μg from each sample were separated via 10% or 13% SDS-PAGE gels and subsequently transferred onto PVDF membranes (Millipore, USA). The membranes were blocked with 5% nonfat dry milk for 1 h at room temperature and then incubated with primary antibodies (Anti-synaptophysin, 1: 1000, Abcam; Anti-NR 2A, 1: 2000, Abcam; Anti-NR 2B, 1: 2000, Abcam; Anti-PSD-95, 1: 2000, Abcam; Anti-CREB, 1: 2000,Abcam; Anti-CREB phosphorylation, 1: 2000, Abcam; Anti-SIRT1, 1: 2000, Santa Cruz Biotechnology; Anti-β-actin, 1:5000, Santa Cruz Biotechnology) overnight at 4° C. Membranes were then incubated for 1 h at room temperature with horseradish peroxidase-conjugated secondary antibodies (Promega). After washing with TBST buffer, signals were visualized with the HRP substrate (Millipore, USA) and detected with a chemiluminescence kit (Tanon 5500, Tanon Science & Technology, China). The gray-scale value of protein band was quantified by NIH Image J program. […]

The test system of another assay is T98G cells. Briefly: Cell viability in TMZ-resistant T98G cells. The note with it: TMZ plus AG-1601. It is filed as cell-based. Here is the method: Cells were treated with indicated content of AG-1601 for 48 hours, then followed by performance of cell viability assays. Efficacy of AG-1601 in rat cell (see FIGS. 24A and B), of AG-1601 in human glioma cell see FIGS. 25A and 25B), different batches of AG-1601 in C6 and U251 cells (see FIGS. 26A and 26B), of AG-1601 in C6 and U87 cells (see FIGS. 27A and 27B), of AG-1601, TMZ, and Carmustine in U251 cells (see FIGS. 28A and 28B), and of AG-1601, TMZ, and Carmustine in U87 cells (see FIGS. 29A and 29B). […] Cell viability was determined in T98G cell and U251 cell after treatment with DMSO, TMZ, AG-1601 and TMZ plus AG-1601 (FIG. 30).

In another assay the test system is Glioma cells. Nature of the assay: Cell viability assay in glioma cells versus TMZ and Carmustine. It is filed as cell-based, human. The settings on record: 48 hours treatment. Here is the method: as §1, §2
Setting [2] is: total homogenate (H), vs Aβ1-42 group.

SMILES strings stand for the structures.

Regarding `C=CC1=C(C)c2cc3[nH]c(cc4nc(cc5[nH]c(cc1n2)c(C)c5C=C)C(C)=C4CCC(=O)O)c(CCC(=O)NCCCc1ccccc1)c3C` [AG-1601, 3-(2,8,13,18-tetramethyl-3-(3-oxo-3-((3-phenylpropyl)amino)propyl)-12,17-divinylporphyrin-7-yl)propanoic acid], the “potentiation of the effect of TMZ” value in the assay on U251 cells is on record as “potentiates the effect of TMZ”. In assay [1] (TIF fraction, vs Aβ1-42 group), the NR2A level entry was “increased”, the NR2B level entry was “increased” and the PSD-95 level result is given as “increased”. For the same molecule, the SYP level result in assay [1] (TSF fraction, vs Aβ1-42 group) is listed as “also increased”. Also, in assay [1] (homogenates of hippocampal tissues, vs Aβ42 group), the SYP expression result is listed as “this effect was overcome”. In addition, in assay [1] (setting [2]), the NR2A level entry is listed as “increased”, the NR2B level entry is “increased” and the PSD-95 level result is listed as “this effect was overcome”. Also, the PSD-95 level entry in assay [1] (total homogenate (H), vs Aβ1-42 group, listed as AG-1061) is “increased”. In the assay on T98G cells, the “effect on TMZ-resistance” value is “Overcomes the Effect of TMZ-resistance”. Moreover, the “efficacy on glioma cells compared with TMZ and Carmustine” value with Glioma cells is “better efficacy on Glioma cells in vitro than TMZ and Carmustine”.
